Measurements published in PubChem BioAssay AID1259407 (Chemical Carcinogenesis Research Information System (CCRIS), 2018).
Calls of active or inactive are those of the source. How the calls were made is not given here.

Tested on: CCRIS mutagenicity, Ames/micronucleus/aberration tests
Assay: CCRIS mutagenicity studies
Excerpt: The CCRIS database contains chemical records with carcinogenicity, mutagenicity, tumor promotion, and tumor inhibition test results. It was developed by the National Cancer Institute (NCI). Data are derived from studies cited in primary journals, current awareness tools, NCI reports, and other sources. Test results have been reviewed by experts in carcinogenesis and mutagenesis.
CCRIS provides historical information from the years 1985 - 2011. It is no longer updated.
This is an archive assay for CCRIS mutagenicity studies.

[1] = Test System: E. COLI, Strain/Indicator: WP2 UVRA, Metabolic Activation: NONE, Method: STANDARD PLATE

CN(C)c1ccc(N=Nc2ccccc2)cc1
mutagenic call (End Point: IN VIVO CHROMOSOMAL ABERRATIONS, Test System: BONE MARROW CELLS, Species: MOUSE, Strain/Sex: SWISS ALBINO, Route: DIET): active; positive (% of aberrations increased with time) | mutagenic call (End Point: IN VIVO MICRONUCLEUS, Test System: BONE MARROW CELL ERYTHROCYTES, Species: MOUSE, Strain/Sex: SWISS ALBINO, Route: DIET): active; positive (% micronuclei increased with time) | mutagenic call (End Point: IN VIVO MICRONUCLEUS, Test System: HEPATOCYTES, Species: RAT, Strain/Sex: FISHER 344 OR SD/MALE, Route: ORAL OR IP): active; positive | mutagenic call (End Point: IN VIVO MICRONUCLEUS, Test System: PERIPHERAL BLOOD RETICULOCYTES, Species: RAT, Strain/Sex: FISHER 344 OR SD/MALE, Route: ORAL OR IP): active; positive | mutagenic call (End Point: In vivo micronucleus, Test System: Micronucleated hepatocytes, Species: Rat, Strain/Sex: F344/Male, Route: Oral): active; positive (highest dose only; p<0.05) | mutagenic call (Test System: AMES SALMONELLA TYPHIMURIUM, Strain/Indicator: TA97, Metabolic Activation: HAMSTER, LIVER, S-9, AROCLOR 1254 (10%), Method: PREINCUBATION): inactive; negative | mutagenic call (Test System: AMES SALMONELLA TYPHIMURIUM, Strain/Indicator: TA97, Metabolic Activation: NONE, Method: PREINCUBATION): inactive; negative | mutagenic call (Test System: AMES SALMONELLA TYPHIMURIUM, Strain/Indicator: TA97, Metabolic Activation: RAT, LIVER, S-9, AROCLOR 1254 (10%), Method: PREINCUBATION): inactive; negative | mutagenic call (Test System: AMES SALMONELLA TYPHIMURIUM, Strain/Indicator: TA98, Metabolic Activation: HAMSTER, LIVER, S-9, AROCLOR 1254 (10%), Method: PREINCUBATION): active; positive | mutagenic call (Test System: AMES SALMONELLA TYPHIMURIUM, Strain/Indicator: TA98, Metabolic Activation: NONE, Method: PREINCUBATION): inactive; negative | mutagenic call (Test System: AMES SALMONELLA TYPHIMURIUM, Strain/Indicator: TA98, Metabolic Activation: RAT, LIVER, S-9, AROCLOR 1254 (10%), Method: PREINCUBATION): inactive; negative | mutagenic call (Test System: AMES SALMONELLA TYPHIMURIUM, Strain/Indicator: TA98, Metabolic Activation: RAT, LIVER, S-9, AROCLOR 1254, Method: STANDARD PLATE): active; positive | mutagenic call (Test System: AMES SALMONELLA TYPHIMURIUM, Strain/Indicator: TA98, Metabolic Activation: RAT, LIVER, S-9, AROCLOR, Method: PREINCUBATION): active; positive | mutagenic call (Test System: AMES SALMONELLA TYPHIMURIUM, Strain/Indicator: TA98, Metabolic Activation: RAT, LIVER, S-9, AROCLOR, Method: STANDARD PLATE): active; positive | mutagenic call (Test System: AMES SALMONELLA TYPHIMURIUM, Strain/Indicator: TA98, Metabolic Activation: RAT, LIVER, S-9, KC500 OR PHENOBARBITAL, Method: LIQUID SUSPENSION): active; positive | mutagenic call (Test System: AMES SALMONELLA TYPHIMURIUM, Strain/Indicator: TA100, Metabolic Activation: HAMSTER, LIVER, S-9, AROCLOR 1254 (5%), Method: PREINCUBATION): inactive; negative | mutagenic call (Test System: AMES SALMONELLA TYPHIMURIUM, Strain/Indicator: TA100, Metabolic Activation: HAMSTER, LIVER, S-9, AROCLOR 1254 (10%), Method: PREINCUBATION): inactive; negative | mutagenic call (Test System: AMES SALMONELLA TYPHIMURIUM, Strain/Indicator: TA100, Metabolic Activation: HAMSTER, LIVER, S-9, AROCLOR 1254 (30%), Method: PREINCUBATION): active; positive | mutagenic call (Test System: AMES SALMONELLA TYPHIMURIUM, Strain/Indicator: TA100, Metabolic Activation: NONE, Method: PREINCUBATION): inactive; negative | mutagenic call (Test System: AMES SALMONELLA TYPHIMURIUM, Strain/Indicator: TA100, Metabolic Activation: RAT, LIVER, S-9, AROCLOR 1254 (5 OR 30%), Method: PREINCUBATION): inactive; negative | mutagenic call (Test System: AMES SALMONELLA TYPHIMURIUM, Strain/Indicator: TA100, Metabolic Activation: RAT, LIVER, S-9, AROCLOR 1254, Method: STANDARD PLATE): active; positive | mutagenic call (Test System: AMES SALMONELLA TYPHIMURIUM, Strain/Indicator: TA100, Metabolic Activation: RAT, LIVER, S-9, KC500 OR PHENOBARBITAL, Method: LIQUID SUSPENSION): active; positive | mutagenic call (Test System: AMES SALMONELLA TYPHIMURIUM, Strain/Indicator: TA1535, Metabolic Activation: HAMSTER, LIVER, S-9, AROCLOR 1254 (10%), Method: PREINCUBATION): inactive; negative | mutagenic call (Test System: AMES SALMONELLA TYPHIMURIUM, Strain/Indicator: TA1535, Metabolic Activation: NONE, Method: PREINCUBATION): inactive; negative | mutagenic call (Test System: AMES SALMONELLA TYPHIMURIUM, Strain/Indicator: TA1535, Metabolic Activation: RAT, LIVER, S-9, AROCLOR 1254 (10%), Method: PREINCUBATION): inactive; negative | mutagenic call (Test System: CHINESE HAMSTER V-79, Strain/Indicator: V-79/6-THIOGUANINE, Metabolic Activation: NONE, Method: SUSPENSION/PLATE): inactive; negative | mutagenic call (Test System: CHINESE HAMSTER V-79, Strain/Indicator: V-79/6-THIOGUANINE, Metabolic Activation: RAT, LIVER, S-9, PHENOBARBITAL AND BETA-NAPHTHOFLAVONE, Method: SUSPENSION/PLATE): inactive; negative | mutagenic call (Test System: E. COLI, Strain/Indicator: WP2 UVRA, Metabolic Activation: HAMSTER, LIVER, S-9, AROCLOR 1254, Method: STANDARD PLATE): inactive; negative | mutagenic call (Test System: E. COLI, Strain/Indicator: WP2 UVRA, Metabolic Activation: HAMSTER, LIVER, S-9, Method: STANDARD PLATE): inactive; negative | mutagenic call (Test System: E. COLI, Strain/Indicator: WP2 UVRA, Metabolic Activation: MOUSE, LIVER, S-9, AROCLOR 1254, Method: STANDARD PLATE): inactive; negative | mutagenic call (Test System: E. COLI, Strain/Indicator: WP2 UVRA, Metabolic Activation: MOUSE, LIVER, S-9, Method: STANDARD PLATE): inactive; negative | mutagenic call [1]: inactive; negative | mutagenic call (Test System: E. COLI, Strain/Indicator: WP2 UVRA, Metabolic Activation: RAT, LIVER, S-9, AROCLOR 1254, Method: STANDARD PLATE): inactive; negative | mutagenic call (Test System: E. COLI, Strain/Indicator: WP2 UVRA, Metabolic Activation: RAT, LIVER, S-9, Method: STANDARD PLATE): inactive; negative | mutagenic call (Test System: MOUSE LYMPHOMA, Strain/Indicator: L5178Y (TK+/TK-), Metabolic Activation: NONE, Method: SUSPENSION/PLATE): inactive; negative | mutagenic call (Test System: MOUSE LYMPHOMA, Strain/Indicator: L5178Y (TK+/TK-), Metabolic Activation: RAT, LIVER, S-9, AROCLOR 1254, Method: SUSPENSION/PLATE): active; positive

CC(C)=CCC/C(C)=C/CC/C(C)=C/C(=O)OCC(=O)[C@@]1(O)CC[C@H]2[C@@H]3CCC4=CC(=O)C=C[C@]4(C)[C@H]3[C@@H](O)C[C@@]21C
mutagenic call (Test System: AMES SALMONELLA TYPHIMURIUM, Strain/Indicator: TA98, Metabolic Activation: NONE, Method: STANDARD PLATE): inactive; negative | mutagenic call (Test System: AMES SALMONELLA TYPHIMURIUM, Strain/Indicator: TA98, Metabolic Activation: RAT, LIVER, S-9, PHENOBARBITAL AND 5,6-BENZOFLAVONE, Method: STANDARD PLATE): inactive; negative | mutagenic call (Test System: AMES SALMONELLA TYPHIMURIUM, Strain/Indicator: TA100, Metabolic Activation: NONE, Method: STANDARD PLATE): inactive; negative | mutagenic call (Test System: AMES SALMONELLA TYPHIMURIUM, Strain/Indicator: TA100, Metabolic Activation: RAT, LIVER, S-9, PHENOBARBITAL AND 5,6-BENZOFLAVONE, Method: STANDARD PLATE): inactive; negative | mutagenic call (Test System: AMES SALMONELLA TYPHIMURIUM, Strain/Indicator: TA1535, Metabolic Activation: NONE, Method: STANDARD PLATE): inactive; negative | mutagenic call (Test System: AMES SALMONELLA TYPHIMURIUM, Strain/Indicator: TA1535, Metabolic Activation: RAT, LIVER, S-9, PHENOBARBITAL AND 5,6-BENZOFLAVONE, Method: STANDARD PLATE): inactive; negative | mutagenic call (Test System: AMES SALMONELLA TYPHIMURIUM, Strain/Indicator: TA1537, Metabolic Activation: NONE, Method: STANDARD PLATE): inactive; negative | mutagenic call (Test System: AMES SALMONELLA TYPHIMURIUM, Strain/Indicator: TA1537, Metabolic Activation: RAT, LIVER, S-9, PHENOBARBITAL AND 5,6-BENZOFLAVONE, Method: STANDARD PLATE): inactive; negative | mutagenic call [1]: inactive; negative | mutagenic call (Test System: E. COLI, Strain/Indicator: WP2 UVRA, Metabolic Activation: RAT, LIVER, S-9, PHENOBARBITAL AND 5,6-BENZOFLAVONE, Method: STANDARD PLATE): inactive; negative

Nc1ncnc2c1ncn2[C@@H]1O[C@H](CO)C[C@@H]1F
mutagenic call (Test System: Mouse lymphoma, Strain/Indicator: L5178Y (tk+/tk-), Metabolic Activation: None, Method: Suspension/plate): inactive; negative | mutagenic call (Test System: Mouse lymphoma, Strain/Indicator: L5178Y (tk+/tk-), Metabolic Activation: Rat, Liver, S-9, Aroclor 1254, Method: Suspension/plate): active; equivocal (previous revaluation positive)
